Experimental findings from US12492183B2, “Tetrahydroquinazoline derivatives as selective cytotoxic agents” (Merck Sharp & Dohme LLC, priority 2020, dated 2025) are described below.

The structures appear in SMILES notation. pEC50: −log10 of the molar value.

This assay concerns PBMCs infected with VSV-G pseudotyped HIV virus (VSV-G/pNLG1-P2A-ΔEnv). As to the kind of experiment: cells. The format is cell-based. The note with it: Homo sapiens, PBMC, read-out: TACK EC50.
For `NS(=O)(=O)c1ccc(Cc2cc3c(cc2F)[C@@](C#CC2CC2)(C(F)(F)F)NC(=O)N3)cc1` [Example 11, (S)-4-((4-(cyclopropylethynyl)-6-fluoro-2-oxo-4-(trifluoromethyl)-1,2,3,4-tetrahydroquinazolin-7-yl)methyl)benzenesulfonamide], the negative-log EC50 (pEC50) (commonly −log10 of the EC50, conventionally taken in molar units) was 6.59.
The result for `Cc1nc(C)c(Cc2cc3c(cc2F)[C@@](C#CC2CC2)(C(F)(F)F)NC(=O)N3)c(=O)[nH]1` [Example 17, (S)-4-(cyclopropylethynyl)-7-((2,4-dimethyl-6-oxo-1,6-dihydropyrimidin-5-yl)meth-yl)-6-fluoro-4-(trifluorometh-yl)-3,4-dihydroquinazolin-2(1H)-one] reads 7.34; that for `Nc1ncc(F)c(Cc2cc3c(cc2F)[C@@](C#CC2CC2)(C(F)(F)F)NC(=O)N3)n1` [Example 29, (S)-7-((2-amino-5-fluoropyr-imidin-4-yl)methyl)-4-(cyclo-propylethynyl)-6-fluoro-4-(trifluoromethyl)-3,4-dihydro-quinazolin-2(1H)-one], 7.30.
In the case of `Cc1nc(C)c(Cc2ccc3c(c2)NC(=O)N(C)[C@]3(C#CC2CC2)C(F)(F)F)c(=O)[nH]1` [Example 22], the negative-log EC50 (pEC50) was 6.64.
With `CC(F)(F)[C@@]1(C#CC2CC2)NC(=O)Nc2cc(Cc3ccc(S(N)(=O)=O)cc3)ccc21` (single isomer, unassigned) [Example 20], the negative-log EC50 (pEC50) was 6.94.
For `Nc1cccc(Cc2ccc3c(c2)NC(=O)N[C@]3(C#CC2CC2)C(F)(F)F)n1` [Example 35, (S)-7-((6-aminopyridin-2-yl)methyl)-4-(cyclopropylethynyl)-4-(trifluoromethyl)-3,4-dihydroquinazolin-2(1H)-one], the negative logarithm of the EC50 (pEC50) is 6.97.
Take `Cc1nc(C)c(Cc2ccc3c(c2)NC(=O)N[C@]3(C#CC2CC2)C(F)(F)F)c(=O)[nH]1` [Example 19, (S)-4-(cyclopropylethynyl)-7-((2,4-dimethyl-6-oxo-1,6-dihydropyrimidin-5-yl)meth-yl)-4-(trifluoromethyl)-3,4-dihydroquinazolin-2(1H)-one]: the negative logarithm of the EC50 (pEC50) is 6.87.
In the case of `Nc1nccc(Cc2cc3c(cc2Cl)[C@@](C#CC2CC2)(C(F)(F)F)NC(=O)N3)n1` [Example 31, (S)-7-((2-aminopyrimidin-4-yl)methyl)-6-chloro-4-(cyclo-propylethynyl)-4-(trifluoro-methyl)-3,4-dihydroquinazo-lin-2(1H)-one], the pEC50 is 7.23.
The result for `NC(=O)c1c(Cc2ccc3c(c2)NC(=O)N[C@]3(C#CC2CC2)C(F)(F)F)ccnc1N` [Example 55] reads 6.72; that for `CN1C(=O)Nc2cc(Cc3ccnc(N)n3)c(F)cc2[C@@]1(C#CC1CC1)C(F)(F)F` (single isomer, unassigned) [Example 40], 7.38; that for `Cc1cc2c(cc1Cc1ccnc(N)n1)NC(=O)N[C@]2(C#CC1CC1)C(F)(F)F` [Example 33, (S)-7-((2-aminopyrimidin-4-yl)methyl)-4-(cyclopropyl-ethynyl)-6-methyl-4-(trifluoro-methyl)-3,4-dihydroquinazo-lin-2(1H)-one], 6.74.
As to `Nc1ncc(F)c(Cc2cc3c(cc2Cl)[C@@](C#CC2CC2)(C(F)(F)F)NC(=O)N3)n1` [Example 32, (S)-7-((2-amino-5-fluoropyr-imidin-4-yl)methyl)-6-chloro-4-(cyclopropylethynyl)-4-(trifluoromethyl)-3,4-dihydro-quinazolin-2(1H)-one], the negative logarithm of the EC50 (pEC50) is 6.81.
As for `NS(=O)(=O)c1ccc(Cc2ccc3c(c2)NC(=S)N[C@]3(C#CC2CC2)C(F)(F)F)cc1` [Example 44, (S)-4-((4-(cyclopropylethynyl)-2-thioxo-4-(trifluoromethyl)-1,2,3,4-tetrahydroquinazolin-7-yl)methyl)benzenesulfonamide], the pEC50 is 6.74.
Turning to `CCN1C(=O)Nc2cc(Cc3c(C)nc(C)[nH]c3=O)ccc2[C@@]1(C#CC1CC1)C(F)(F)F` [Example 21, (S)-4-(cyclopropylethynyl)-7-((2,4-dimethyl-6-oxo-1,6-dihydropyrimidin-5-yl)methyl)-3-ethyl-4-(trifluoromethyl)-3,4-dihydroquinazolin-2(1H)-one], the pEC50 was 6.86.
Regarding `Nc1nccc(Cc2cc3c(cc2F)[C@@](C#CC2CC2)(C(F)(F)F)NC(=O)N3)n1` [Example 38, (S)-7-((2-aminopyrimidin-4-yl)methyl)-4-(cyclopropylethynyl)-6-fluoro-4-(trifluoromethyl)-3,4-dihydroquinazolin-2(1H)-one], the negative-log EC50 (pEC50) was 7.41.
Take `N#Cc1c(Cc2cc3c(cc2F)[C@@](C#CC2CC2)(C(F)(F)F)NC(=O)N3)ccnc1N` [Example 52, (S)-2-amino-4-((4-(cyclo-propylethynyl)-6-fluoro-2-oxo-4-(trifluoromethyl)-1,2,3,4-tetrahydroquinazolin-7-yl)methyl)nicotinonitrile]: the negative logarithm of the EC50 (pEC50) was 7.67.
On to `Nc1cc(Cc2ccc3c(c2)NC(=O)N[C@]3(C#CC2CC2)C(F)(F)F)ccn1` [Example 12, (S)-2-amino-4-((4-(cyclopropylethynyl)-2-oxo-4-(trifluoromethyl)-1,2,3,4-tetrahydroquinazolin-7-yl)methyl)pyridin-1-ium 2,2,2-trifluoroacetate], for which the negative-log EC50 (pEC50) is 6.88.
`O=C1Nc2cc(Cc3ccccn3)c(F)cc2[C@@](C#CC2CC2)(C(F)(F)F)N1` [Example 53, (S)-4-(cyclopropylethynyl)-6-fluoro-7-(pyridin-2-ylmeth-yl)-4-(trifluoromethyl)-3,4-dihydroquinazolin-2(1H)-one]: the negative logarithm of the EC50 (pEC50) is 6.86.
Regarding `Nc1cccc(Cc2cc3c(cc2F)[C@@](C#CC2CC2)(C(F)(F)F)NC(=O)N3)n1` [Example 13, (S)-2-amino-6-((4-(cyclopropyl-ethynyl)-6-fluoro-2-oxo-4-(trifluoromethyl)-1,2,3,4-tetra-hydroquinazolin-7-yl)methyl)-pyridin-1-ium 2,2,2-trifluoro-acetate], the pEC50 was 6.89.
With `O=C1Nc2cc(Cc3cnccn3)c(F)cc2[C@@](C#CC2CC2)(C(F)(F)F)N1` [Example 51, (S)-4-(cyclopropylethynyl)-6-fluoro-7-(pyrazin-2-ylmeth-yl)-4-(trifluoromethyl)-3,4-dihydroquinazolin-2(1H)-one], the pEC50 is 7.02.
`CC(F)(F)[C@@]1(C#CC2CC2)NC(=O)Nc2cc(Cc3nc(N)ncc3F)ccc21` [Example 58, (S)-7-((2-amino-5-fluoropyrimidin-4-yl)methyl)-4-(cyclopropylethynyl)-4-(1,1-difluoroethyl)-3,4-dihydroquinazolin-2(1H)-one]: the negative logarithm of the EC50 (pEC50) was 7.08.
On to `Nc1nc(Cl)cc(Cc2ccc3c(c2)NC(=O)N[C@]3(C#CC2CC2)C(F)(F)F)n1` [Example 48, (S)-7-((2-amino-6-chloropyrimidin-4-yl)methyl)-4-(cyclopropylethynyl)-4-(trifluoromethyl)-3,4-dihydroquinazolin-2(1H)-one], for which the pEC50 was 6.85.
The result for `Cc1ccc(Cc2ccc3c(c2)NC(=O)N[C@]3(C#CC2CC2)C(F)(F)F)c(=O)[nH]1` [Example 1, (S)-4-(cyclopropylethynyl)-7-((6-methyl-2-oxo-1,2-dihydropyridin-3-yl)methyl)-4-(trifluoromethyl)-3,4-dihydroquinazolin-2(1H)-one] reads 6.92.
In the case of `Nc1nc(Cc2ccc3c(c2)NC(=O)N[C@]3(C#CC2CC2)C(F)(F)F)ccc1CO` [Example 45, (S)-7-((6-amino-5-(hydroxymethyl)pyridin-2-yl)methyl)-4-(cyclopropylethynyl)-4-(trifluoromethyl)-3,4-dihydroquinazolin-2(1H)-one], the pEC50 was 7.27.
On to `Cc1nc(C)c(Cc2ccc3c(c2)NC(=O)N(C(C)C)[C@]3(C#CC2CC2)C(F)(F)F)c(=O)[nH]1` [Example 23, (S)-4-(cyclopropylethynyl)-7-((2,4-dimethyl-6-oxo-1,6-dihydropyrimidin-5-l)meth-yl)-3-isopropyl-4-(trifluoro-methyl)-3,4-dihydroquin-azolin-2(1H)-one], for which the pEC50 is 6.82.
For `N#Cc1cc(Cc2cc3c(cc2F)[C@@](C#CC2CC2)(C(F)(F)F)NC(=O)N3)[n+]([O-])cc1OCCO` [Example 43, (S)-4-cyano-2-((4-(cyclopropylethynyl)-6-fluoro-2-oxo-4-(trifluoromethyl)-1,2,3,4-tetrahydroquinazolin-7-yl)methyl)-5-(2-hydroxyethoxy)pyridine 1-oxide], the pEC50 was 6.78.
As for `O=C1Nc2cc(Cc3ccc(OCCO)cn3)c(F)cc2[C@@](C#CC2CC2)(C(F)(F)F)N1` [Example 42, (S)-4-(cyclopropylethynyl)-6-fluoro-7-((5-(2-hydroxyethoxy)pyridin-2-yl)methyl)-4-(trifluoromethyl)-3,4-dihydroquinazolin-2(1H)-one], the negative-log EC50 (pEC50) is 6.79.
Turning to `Nc1ncnc(Cc2ccc3c(c2)NC(=O)N[C@]3(C#CC2CC2)C(F)(F)F)n1` [Example 49, (S)-7-((4-amino-1,3,5-triazin-2-yl)methyl)-4-(cyclopropyl-ethynyl)-4-(trifluoromethyl)-3,4-dihydroquinazolin-2(1H)-one], the pEC50 was 6.84.
The result for `N#Cc1cnccc1Cc1cc2c(cc1F)[C@@](C#CC1CC1)(C(F)(F)F)NC(=O)N2` [Example 56, (S)-4-((4-(cyclopropylethynyl)-6-fluoro-2-oxo-4-(trifluoromethyl)-1,2,3,4-tetrahydroquinazolin-7-yl)methyl)nicotinonitrile] reads 7.08.
For `O=C1Nc2cc(Cc3ncc[nH]c3=O)ccc2[C@@](C#CC2CC2)(C(F)(F)F)N1` [Example 61, (S)-4-(cyclopropylethynyl)-7-((3-hydroxypyrazin-2-yl)methyl)-4-(trifluoromethyl)-3,4-dihydroquinazolin-2(1H)-one], the negative logarithm of the EC50 (pEC50) is 7.19.
Turning to `Nc1cc(Cc2ccc3c(c2)NC(=O)N[C@]3(C#CC2CC2)C(F)(F)F)c(F)cn1` [Example 37, (S)-7-((2-amino-5-fluoro-pyridin-4-yl)methyl)-4-(cyclopropylethynyl)-4-(trifluoromethyl)-3,4-dihydroquinazolin-2(1H)-one], the pEC50 is 6.77.
